The nature of experiment [1]: Dopamine D3 Receptor Binding Test: The experiment is carried out by the method according to Journal of Pharmacology and Experimental Therapeutics 2010, 333(1): 328. With [3H]methyl-spiperone (0.3 nM) as the ligand and (+)-butaclamol (10 LM) for determining non-specific binding, binding tests are carried out on human recombinant D3 receptor (expressed in CHO cells). It counts as cell-based.

The target in experiment [2] is T1, 5-hydroxytryptamine receptor 1A (Homo sapiens, UniProt P08908).
T1 sequence (P08908 whole entry): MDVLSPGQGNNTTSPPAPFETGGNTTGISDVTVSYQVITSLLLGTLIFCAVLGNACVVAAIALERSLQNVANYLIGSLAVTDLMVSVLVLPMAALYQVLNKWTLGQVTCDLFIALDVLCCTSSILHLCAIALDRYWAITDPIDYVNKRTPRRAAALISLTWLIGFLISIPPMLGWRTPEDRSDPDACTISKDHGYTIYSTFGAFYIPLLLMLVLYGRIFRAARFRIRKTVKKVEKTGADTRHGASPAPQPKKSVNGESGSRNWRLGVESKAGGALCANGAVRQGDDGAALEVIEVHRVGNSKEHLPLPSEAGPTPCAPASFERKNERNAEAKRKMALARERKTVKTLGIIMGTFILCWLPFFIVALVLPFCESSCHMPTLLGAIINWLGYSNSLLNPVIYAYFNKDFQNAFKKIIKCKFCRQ
Nature of the experiment: 5-HT1A Receptor Binding Test: 1. Experimental Materials:The isotopic ligand of 5-H1A receptor […] (purchased from PE Corporation), (+)5-hydroxytryptamine (purchased from Sigma Corporation), GF/B glassfiber filter (purchased from Whatman Corporation), fat-soluble scintillation fluid: PPO and POPOP (purchased from Shanghai No. 1 Reagent Factory), toluene (purchased from Sinopharm Chemical Reagent Co., Ltd), and Tris (imported and subpackaged).Cells: HEK-293 cells stably expressing 5-HT1A receptors as obtained by gene recombination are cultured for 3-5 days in cell culture medium DMEM supplemented with 10% serum. […] Total binding tube […] 20 μL D1 Binding Buffer 20 μL Cells 160 μL Non-specific tube […] 20 μL 5-HT(10−4) 20 μL Cells 160 μL Tube with the […] 20 μL compound to be tested The compound to be tested 20 μL Cells 160 μL The components are mixed to homogeneity, and then the above tubes are transferred to water bath at 30° C. (1 h), removed into ice bath immediately, and suction filtered on Harvest (with ice cold Tris eluate for 5 times).

A further experiment deals with D(2) dopamine receptor (Homo sapiens, UniProt P14416). Nature of the experiment: Receptor Binding Test: 1. Experimental Materials:(1) D2 receptor Cell Transfection:This experiment utilizes the plasmid vector containing the gene of D2 receptor protein for transfecting HEK293 cells by calcium phosphate transfection method.

For 13 compounds, Ki results are on record in ChEMBL document CHEMBL5725520, “Benzoisothiazole compounds and methods of treating schizophrenia” (2017).

Sequence of D(2) dopamine receptor (P14416 whole entry): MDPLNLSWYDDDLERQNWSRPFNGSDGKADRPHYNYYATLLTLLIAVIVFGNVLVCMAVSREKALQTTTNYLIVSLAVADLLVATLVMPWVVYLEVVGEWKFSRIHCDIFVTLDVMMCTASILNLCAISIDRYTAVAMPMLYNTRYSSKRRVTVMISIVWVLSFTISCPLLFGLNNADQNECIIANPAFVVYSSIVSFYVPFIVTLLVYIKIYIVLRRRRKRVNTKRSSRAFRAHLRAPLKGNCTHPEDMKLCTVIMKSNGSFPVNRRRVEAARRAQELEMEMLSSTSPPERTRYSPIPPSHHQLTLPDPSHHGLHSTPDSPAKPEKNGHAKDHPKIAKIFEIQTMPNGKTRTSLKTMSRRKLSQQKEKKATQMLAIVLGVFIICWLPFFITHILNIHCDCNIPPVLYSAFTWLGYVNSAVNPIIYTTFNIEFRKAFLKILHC

Consider `Cc1ccccc1OC(=O)N[C@H]1CC[C@H](CCN2CCN(c3nsc4ccccc34)CC2)CC1`, for which the Ki in experiment [1] turned out to be 8.49 nM.
Regarding `O=C(N[C@H]1CC[C@H](CCN2CCN(c3nsc4ccccc34)CC2)CC1)Oc1ccc(Cl)cc1`, in experiment [1], the Ki was determined as 11.6 nM.
Take `COC(=O)N[C@H]1CC[C@@H](CCN2CCN(c3nsc4ccccc34)CC2)CC1`: the Ki is 2.55 nM in experiment [2] and 0.087 nM in experiment [1].
For `O=C(N[C@H]1CC[C@@H](CCN2CCN(c3nsc4ccccc34)CC2)CC1)OCc1ccccc1`, the Ki at D(2) dopamine receptor amounted to 0.98 nM; in experiment [2], 2.14 nM; in experiment [1], 1.03 nM.
For `O=C(N[C@H]1CC[C@H](CCN2CCN(c3nsc4ccccc34)CC2)CC1)Oc1ccc([N+](=O)[O-])cc1`, the Ki at D(2) dopamine receptor was found to be 12.4 nM; in experiment [1], 7.12 nM.
As to `COc1cccc(OC(=O)N[C@H]2CC[C@H](CCN3CCN(c4nsc5ccccc45)CC3)CC2)c1`, the Ki in experiment [1] was found to be 1.05 nM.
With `CCOC(=O)N[C@H]1CC[C@@H](CCN2CCN(c3nsc4ccccc34)CC2)CC1`, the Ki on D(2) dopamine receptor came to 1.97 nM; in experiment [2] it was 0.97 nM; in experiment [1], 0.46 nM.
On to `O=C(N[C@H]1CC[C@H](CCN2CCN(c3nsc4ccccc34)CC2)CC1)OCc1ccccc1`, for which the Ki is 1.6 nM on D(2) dopamine receptor, 0.79 nM in experiment [2] and 0.061 nM in experiment [1].
For `O=C(N[C@H]1CC[C@H](CCN2CCN(c3nsc4ccccc34)CC2)CC1)OC1CC1`, the Ki at D(2) dopamine receptor amounted to 3.26 nM; in experiment [2], 3.95 nM; in experiment [1], 1.81 nM.
For `O=C(N[C@H]1CC[C@H](CCN2CCN(c3nsc4ccccc34)CC2)CC1)OC1CCCCC1` the same measures were 11.8 nM, 1.69 nM and 4.3 nM.
`O=C(N[C@H]1CC[C@H](CCN2CCN(c3nsc4ccccc34)CC2)CC1)Oc1ccccc1`: in experiment [1], the Ki was determined as 0.74 nM.
On to `COC(=O)N[C@H]1CC[C@H](CCN2CCN(c3nsc4ccccc34)CC2)CC1`, for which the Ki in experiment [1] came out at 0.1 nM.
Still for that read-out and setting: with `CC(C)COC(=O)N[C@H]1CC[C@H](CCN2CCN(c3nsc4ccccc34)CC2)CC1` the figure was 0.093 nM.

Broadly, the Ki is a measure of affinity in units of concentration, obtained from inhibition or displacement.
